Assay results from patent US10597388B2, “Pyridazinone herbicides” (FMC CORPORATION, priority 2014, dated 2020).

Legend:
Assay in all cases: Test C greenhouse herbicide test, pre- and postemergence
Assay type in all cases: in vivo
[1] = system: barnyardgrass (Echinochloa crus-galli)
Procedure, shortened: (§1)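 Pre- and postemergence greenhouse screen; values are visual control ratings, 0 meaning no effect and 100 complete kill, assigned relative to untreated plants after 13 to 15 d.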

[2] = system: blackgrass (Alopecurus myosuroides)
Procedure, shortened: as §1

corn (Zea mays) = system: corn (Zea mays)
Procedure, shortened: as §1

[3] = system: crabgrass, large (large crabgrass, Digitaria sanguinalis)
Procedure, shortened: as §1

[4] = system: foxtail, giant (giant foxtail, Setaria faberii)
Procedure, shortened: as §1

[5] = system: galium (catchweed bedstraw, Galium aparine)
Procedure, shortened: as §1

[6] = system: lambsquarters (Chenopodium album)
Procedure, shortened: as §1

[7] = system: nutsedge, yellow (yellow nutsedge, Cyperus esculentus)
Procedure, shortened: as §1

[8] = system: oilseed rape (Brassica napus)
Procedure, shortened: as §1

[9] = system: pigweed (Amaranthus retroflexus)
Procedure, shortened: as §1

[10] = system: ragweed (common ragweed, Ambrosia elatior)
Procedure, shortened: as §1

[11] = system: ryegrass, Italian (Italian ryegrass, Lolium multiflorum)
Procedure, shortened: as §1

soybean (Glycine max) = system: soybean (Glycine max)
Procedure, shortened: as §1

[12] = system: velvetleaf (Abutilon theophrasti)
Procedure, shortened: as §1

[13] = system: wheat (winter wheat, Triticum aestivum)
Procedure, shortened: as §1

[14] = Postemergence, 31 g ai/ha, scale 0 to 100 (0 no effect, 100 complete control)
[15] = Postemergence, 62 g ai/ha, 0 to 100 scale (0 no effect, 100 complete control)
[16] = Postemergence, 250 g ai/ha, scale 0 to 100, 0 is no effect, 100 is complete control
[17] = postemergence, 125 g ai/ha, scale 0 to 100, 0 no effect, 100 complete control

## Cc1nn(C)c(=O)c(-c2c([N+](=O)[O-])ccc3ccccc23)c1O [Compound 165]
[1]; [14]
  Plant response rating, Barnyardgrass: 10
[1]; [15]
  Barnyardgrass plant response rating: 15
[1]; [16]
  Plant response rating, Barnyardgrass: 25
[1]; [17]
  Barnyardgrass plant response rating: 25
[2]; [14]
  Plant response rating, Blackgrass: 5
[2]; [15]
  Blackgrass plant response rating: 15
[2]; [16]
  Plant response rating, Blackgrass: 25
[2]; [17]
  Blackgrass plant response rating: 20
Corn (Zea mays); [14]
  Plant response rating, Corn: 0
Corn (Zea mays); [15]
  Corn plant response rating: 0
Corn (Zea mays); [16]
  Plant response rating, Corn: 5
Corn (Zea mays); [17]
  Corn plant response rating: 0
[3]; [14]
  Plant response rating, Crabgrass, Large: 0
[3]; [15]
  Crabgrass, Large plant response rating: 5
[3]; [16]
  Plant response rating, Crabgrass, Large: 20
[3]; [17]
  Crabgrass, Large plant response rating: 20
[4]; [14]
  Plant response rating, Foxtail, Giant: 0
[4]; [15]
  Foxtail, Giant plant response rating: 5
[4]; [16]
  Plant response rating, Foxtail, Giant: 25
[4]; [17]
  Foxtail, Giant plant response rating: 15
[5]; [14]
  Plant response rating, Galium: 85
[5]; [15]
  Galium plant response rating: 85
[5]; [16]
  Plant response rating, Galium: 100
[5]; [17]
  Galium plant response rating: 98
[6]; [14]
  Plant response rating, Lambsquarters: 70
[6]; [15]
  Lambsquarters plant response rating: 75
[6]; [16]
  Plant response rating, Lambsquarters: 98
[6]; [17]
  Lambsquarters plant response rating: 85
[7]; [14]
  Plant response rating, Nutsedge, Yellow: 20
[7]; [15]
  Nutsedge, Yellow plant response rating: 30
[7]; [16]
  Plant response rating, Nutsedge, Yellow: 35
[7]; [17]
  Nutsedge, Yellow plant response rating: 25
[8]; [14]
  Plant response rating, Oilseed Rape: 0
[8]; [15]
  Oilseed Rape plant response rating: 0
[8]; [16]
  Plant response rating, Oilseed Rape: 5
[8]; [17]
  Oilseed Rape plant response rating: 0
[9]; [14]
  Plant response rating, Pigweed: 75
[9]; [15]
  Pigweed plant response rating: 70
[9]; [16]
  Plant response rating, Pigweed: 85
[9]; [17]
  Pigweed plant response rating: 75
[10]; [14]
  Plant response rating, Ragweed: 40
[10]; [15]
  Ragweed plant response rating: 55
[10]; [16]
  Plant response rating, Ragweed: 85
[10]; [17]
  Ragweed plant response rating: 75
[11]; [14]
  Plant response rating, Ryegrass, Italian: 40
[11]; [15]
  Ryegrass, Italian plant response rating: 50
[11]; [16]
  Plant response rating, Ryegrass, Italian: 70
[11]; [17]
  Ryegrass, Italian plant response rating: 55
Soybean (Glycine max); [14]
  Plant response rating, Soybean: 10
Soybean (Glycine max); [15]
  Soybean plant response rating: 10
Soybean (Glycine max); [16]
  Plant response rating, Soybean: 15
Soybean (Glycine max); [17]
  Soybean plant response rating: 15
[12]; [14]
  Plant response rating, Velvetleaf: 20
[12]; [15]
  Velvetleaf plant response rating: 25
[12]; [16]
  Plant response rating, Velvetleaf: 50
[12]; [17]
  Velvetleaf plant response rating: 20
[13]; [14]
  Plant response rating, Wheat: 5
[13]; [15]
  Wheat plant response rating: 5
[13]; [16]
  Plant response rating, Wheat: 15
[13]; [17]
  Wheat plant response rating: 10
